# Experimental data: PMC11003488 (Journal of Enzyme Inhibition and Medicinal Chemistry, 2023)
# Key:
# [1] = system: 786-0; experiment: NCI-60 SRB growth inhibition, one-dose and five-dose; format: cell-based; details: Homo sapiens
# [2] = system: NCI/ADR-RES; experiment: as above; format: cell-based; details: Homo sapiens
# [3] = system: HT29; experiment: as above; format: cell-based; details: Homo sapiens
# [4] = system: SR; experiment: as above; format: cell-based; details: Homo sapiens
# [5] = system: HCT-15; experiment: as above; format: cell-based; details: Homo sapiens
# [6] = system: NCI-H522; experiment: as above; format: cell-based; details: Homo sapiens
# [7] = system: NCI-H23; experiment: as above; format: cell-based; details: Homo sapiens
# [8] = system: A549/ATCC; experiment: as above; format: cell-based; details: Homo sapiens
# [9] = system: SW-620; experiment: as above; format: cell-based; details: Homo sapiens
# [10] = system: T-47D; experiment: as above; format: cell-based; details: Homo sapiens, T47D
# [11] = system: CCRF-CEM; experiment: as above; format: cell-based; details: Homo sapiens
# [12] = system: BT-549; experiment: as above; format: cell-based; details: Homo sapiens
# [13] = system: SNB-75; experiment: as above; format: cell-based; details: Homo sapiens
# [14] = system: OVCAR-3; experiment: as above; format: cell-based; details: Homo sapiens
# [15] = system: LOX IMVI; experiment: as above; format: cell-based; details: Homo sapiens
# [16] = system: SK-MEL-28; experiment: as above; format: cell-based; details: Homo sapiens
# [17] = system: MALME-3M; experiment: as above; format: cell-based; details: Homo sapiens
# [18] = system: OVCAR-5; experiment: as above; format: cell-based; details: Homo sapiens
# [19] = system: OVCAR-4; experiment: as above; format: cell-based; details: Homo sapiens
# [20] = system: SF-295; experiment: as above; format: cell-based; details: Homo sapiens
# [21] = system: COLO 205; experiment: as above; format: cell-based; details: Homo sapiens
# [22] = system: SK-MEL-5; experiment: as above; format: cell-based; details: Homo sapiens
# [23] = system: A498; experiment: as above; format: cell-based; details: Homo sapiens
# [24] = system: RXF 393; experiment: as above; format: cell-based; details: Homo sapiens
# [25] = system: NCI-H460; experiment: as above; format: cell-based; details: Homo sapiens
# [26] = system: M14; experiment: as above; format: cell-based; details: Homo sapiens
# [27] = system: DU-145; experiment: as above; format: cell-based; details: Homo sapiens
# [28] = system: SK-MEL-2; experiment: as above; format: cell-based; details: Homo sapiens, SK-MEL-2, read-out: percent growth inhibition
# [29] = system: MCF7; experiment: as above; format: cell-based; details: Homo sapiens
# [30] = system: U251; experiment: as above; format: cell-based; details: Homo sapiens
# [31] = system: NCI-H322M; experiment: as above; format: cell-based; details: Homo sapiens
# [32] = system: HOP-92; experiment: as above; format: cell-based; details: Homo sapiens
# [33] = system: MOLT-4; experiment: as above; format: cell-based; details: Homo sapiens
# [34] = system: NCI 60-cell line panel (full panel); experiment: NCI-60 SRB growth inhibition, full panel mean / MG-MID; format: cell-based, human
# [35] = system: CAKI-1; experiment: NCI-60 SRB growth inhibition, one-dose and five-dose; format: cell-based; details: Homo sapiens
# [36] = system: K-562; experiment: as above; format: cell-based; details: Homo sapiens
# [37] = system: SK-OV-3; experiment: as above; format: cell-based; details: Homo sapiens
# [38] = system: MDA-MB-468; experiment: as above; format: cell-based; details: Homo sapiens
# [39] = system: EKVX; experiment: as above; format: cell-based; details: Homo sapiens
# [40] = system: SNB-19; experiment: as above; format: cell-based; details: Homo sapiens
# [41] = system: SF-268; experiment: as above; format: cell-based; details: Homo sapiens
# [42] = system: UACC-257; experiment: as above; format: cell-based; details: Homo sapiens
# [43] = read-out: percent growth inhibition
compound,measurement,setting,value
"CC(=O)Nc1ccc(/C=C/C(=O)c2cccc(NCc3ccc(NC(C)=O)cc3)c2)cc1 [Compound 5g, (E)-N-(4–(3-(3-((4-acetamidobenzyl)amino)phenyl)-3-oxoprop-1-en-1-yl)phenyl) acetamide]",GI50,[1]; 786-0,13.7 µM
same,inhibition at 10 µM,"[1]; 786-0, read-out: percent growth inhibition",144%
same,GI50,[2],16.5 µM
same,inhibition at 10 µM,[2]; [43],88.2%
same,GI50,[3]; HT-29,5.75 µM
same,inhibition at 10 µM,"[3]; HT-29, read-out: percent growth inhibition",164%
same,GI50,[4],2.43 µM
same,GI50,[5]; HCT-15,3.13 µM
same,inhibition at 10 µM,"[5]; HCT-15, read-out: percent growth inhibition",144%
same,GI50,[6]; NCI-H522,6.54 µM
same,inhibition at 10 µM,"[6]; NCI-H522, read-out: percent growth inhibition",159%
same,GI50,[7]; NCI-H23,14.4 µM
same,inhibition at 10 µM,"[7]; NCI-H23, read-out: percent growth inhibition",55.1%
same,GI50,[8]; A549,15.8 µM
same,inhibition at 10 µM,"[8]; A549, read-out: percent growth inhibition",10.9%
same,GI50,[9]; SW-620,1.9 µM
same,inhibition at 10 µM,"[9]; SW-620, read-out: percent growth inhibition",158%
same,GI50,[10],7.77 µM
same,inhibition at 10 µM,[10]; [43],46.4%
same,GI50,[11],4.52 µM
same,inhibition at 10 µM,[11]; [43],116%
same,GI50,[12]; BT-549,10.4 µM
same,inhibition at 10 µM,"[12]; BT-549, read-out: percent growth inhibition",63.7%
same,GI50,[13]; SNB-75,4.87 µM
same,inhibition at 10 µM,"[13]; SNB-75, read-out: percent growth inhibition",17%
same,GI50,[14]; OVCAR-3,6.09 µM
same,inhibition at 10 µM,"[14]; OVCAR-3, read-out: percent growth inhibition",118%
same,GI50,[15],1.9 µM
same,inhibition at 10 µM,[15]; [43],191%
same,GI50,[16]; SK-MEL-28,12.7 µM
same,inhibition at 10 µM,"[16]; SK-MEL-28, read-out: percent growth inhibition",98.3%
same,GI50,[17],7.11 µM
same,inhibition at 10 µM,[17]; [43],57.5%
same,GI50,[18]; OVCAR-5,12.3 µM
same,inhibition at 10 µM,"[18]; OVCAR-5, read-out: percent growth inhibition",45.2%
same,GI50,[19]; OVCAR-4,14 µM
same,inhibition at 10 µM,"[19]; OVCAR-4, read-out: percent growth inhibition",38.7%
same,GI50,[20]; SF-295,14 µM
same,inhibition at 10 µM,"[20]; SF-295, read-out: percent growth inhibition",51.8%
same,GI50,[21]; COLO 205,16 µM
same,inhibition at 10 µM,"[21]; COLO 205, read-out: percent growth inhibition",30.7%
same,GI50,[22]; SK-MEL-5,12 µM
same,inhibition at 10 µM,"[22]; SK-MEL-5, read-out: percent growth inhibition",99.6%
same,GI50,[23]; A498,14.2 µM
same,inhibition at 10 µM,"[23]; A498, read-out: percent growth inhibition",16.6%
same,GI50,[24]; RXF 393,11.3 µM
same,inhibition at 10 µM,"[24]; RXF 393, read-out: percent growth inhibition",158%
same,GI50,[25]; NCI-H460,6.29 µM
same,inhibition at 10 µM,"[25]; NCI-H460, read-out: percent growth inhibition",136%
same,GI50,[26]; M14,12.6 µM
same,inhibition at 10 µM,"[26]; M14, read-out: percent growth inhibition",77%
same,GI50,[27]; DU-145,11.8 µM
same,inhibition at 10 µM,"[27]; DU-145, read-out: percent growth inhibition",61.7%
same,inhibition at 10 µM,[28],28.3%
same,GI50,[29]; MCF7,2.88 µM
same,inhibition at 10 µM,"[29]; MCF7, read-out: percent growth inhibition",107%
same,GI50,[30]; U-251,3.2 µM
same,inhibition at 10 µM,"[30]; U-251, read-out: percent growth inhibition",181%
same,GI50,[31],13.8 µM
same,inhibition at 10 µM,[31]; [43],28.7%
same,GI50,[32]; HOP-92,11.8 µM
same,inhibition at 10 µM,"[32]; HOP-92, read-out: percent growth inhibition",26.9%
same,GI50,[33]; MOLT-4,3.21 µM
same,inhibition at 10 µM,"[33]; MOLT-4, read-out: percent growth inhibition",116%
same,GI50,"[34]; Homo sapiens, 60 cell, read-out: Full panel GI50 mean",9.52 µM
same,Full panel Mean GI %,"[34]; mean over NCI-60 panel, single dose 10 µM",87.48%
same,GI50,[35]; CAKI-1,12.2 µM
same,inhibition at 10 µM,"[35]; CAKI-1, read-out: percent growth inhibition",54.9%
same,GI50,[36]; K562,2.93 µM
same,inhibition at 10 µM,"[36]; K562, read-out: percent growth inhibition",100%
same,GI50,[37]; SK-OV-3,16.3 µM
same,inhibition at 10 µM,"[37]; SK-OV-3, read-out: percent growth inhibition",0.18%
same,GI50,[38]; MDA-MB-468,10 µM
same,inhibition at 10 µM,"[38]; MDA-MB-468, read-out: percent growth inhibition",68.2%
same,GI50,[39],13.5 µM
same,inhibition at 10 µM,[39]; [43],43.7%
same,GI50,[40]; SNB-19,7 µM
same,inhibition at 10 µM,"[40]; SNB-19, read-out: percent growth inhibition",95.4%
same,GI50,[41]; SF-268,18.4 µM
same,inhibition at 10 µM,"[41]; SF-268, read-out: percent growth inhibition",78.7%
same,GI50,[42]; UACC-257,12.5 µM
same,inhibition at 10 µM,"[42]; UACC-257, read-out: percent growth inhibition",51.1%
